From patent EP0365763A1, “Antiproliferative cyclic compounds” (priority 1988, dated 1990)
Like-named read-outs stand apart in the source and are kept apart here.

Columns and labels:
[1] = tested on: L1210 murine leukemia (ATCC CCL 219); assay: Cellular growth in culture, MTT-tetrazolium reduction assay; assay type: cell-based; details: for IC50: Mus musculus, L1210, 72 h, read-out: IC50 FOR CELLS IN CULTURE L1210
Protocol: (§1) Cellular growth in the presence of the compounds in question was assessed using two cell lines, the Ll2l0 murine leukemia (ATCC CCL 219) and CCRF-CEM, a human lymphoblastic leukemia line of T-cell origin (ATCC CCL 119). Both lines were maintained in RPMI 1640 medium containing 5% heat-inactivated fetal bovine serum without antibiotics.
(§2) IC₅₀ values were determined in 150 microliter microcultures each containing 1500 (Ll2l0) or 4000 (CCRF-CEM) cells established in 96 well plates in growth medium supplemented with 50 IU/ml penicillin and 50 mcg/ml streptomycin. Growth was measured over 3 days (Ll2l0) or 5 days (CCRF-CEM) of continuous exposure to varying concentrations of each test compound added 4 h. after initial cell plating by the MTT-tetrazolium reduction assay of Mosmann (T. J. Immunol. Meth. 65, 55-63 (1983)) modified according to Alley et al. (Cancer Res. 48 589-601 (1988)). Water insoluble derivatives were dissolved in DMSO and diluted to a final concentration of 0.5% solvent in cell cultures.

[2] = tested on: CCRF-CEM, a human lymphoblastic leukemia line of T-cell origin (ATCC CCL 119); assay: as above; assay type: cell-based; details: for IC50: Homo sapiens, CCRF-CEM, 120 h, read-out: IC50 FOR CELLS IN CULTURE CCRF-CEM; for inhibition at this concentration, CCRF-CEM: at the highest concentration tested, 5 days
Protocol: as §1, §2

[3] = molecular target: E.coli thymidylate synthase (TS) (Escherichia coli, UniProt P0A884); assay: Thymidylate synthase inhibition constants against 5,10-methylene-tetrahydrofolate; assay type: biochemical
Protocol: (§3) Determination of Inhibition Constants Against 5,10-Methylene-Tetrahydrofolate
(§4) Thymidylate synthase inhibition constants K₁ have been determined by the following method. All assays were run at 25°C and initiated by the addition of thymidylate synthase ("TS"). […] All reaction mixtures contained 50 mM Tris at pH 7.8 (the final pH of the reaction was 7.6), 10 mM DTT (dithiothreitol), 1 mM EDTA (ethylenediaminetetraacetic acid), 25 mM MgCl₂, 15 mM H₂CO (formaldehyde) and 25 microM dUMP. When human or Leishmania TS was assayed, 100 micrograms/ml of BSA (bovine serum albumin) was present in the reactions. […] Charcoal was used to remove unreacted dUMP from the tritium release reaction mixtures and the resultant water was counted to determine the extent of reaction.

[4] = molecular target: C.albicans thymidylate synthase (TS) (Candida albicans, UniProt P12461); assay: as above; assay type: biochemical
Protocol: as §3, §4

[5] = molecular target: Human thymidylate synthase (TS) (Homo sapiens, UniProt P04818); assay: as above; assay type: biochemical
Protocol: as §3
Thymidylate synthase inhibition constants K₁ have been determined by the following method. All assays were run at 25°C and initiated by the addition of thymidylate synthase ("TS"). […] All reaction mixtures contained 50 mM Tris at pH 7.8 (the final pH of the reaction was 7.6), 10 mM DTT (dithiothreitol), 1 mM EDTA (ethylenediaminetetraacetic acid), 25 mM MgCl₂, 15 mM H₂CO (formaldehyde) and 25 microM dUMP. When human or Leishmania TS was assayed, 100 micrograms/ml of BSA (bovine serum albumin) was present in the reactions.

murine L1210 TS = molecular target: T1, murine L1210 TS (Mus musculus, UniProt P07607); details: relative to 10-propargyl-5,8-dideazafolic acid; cited from earlier work
T1 construct: host or cells: L1210

[6] = molecular target: L. major thymidylate synthase (TS) (Leishmania major, UniProt P07382); assay: biochemical
Protocol: as §3, §4

[7] = 3 days of continuous exposure, MTT
[8] = 5 days of continuous exposure, MTT
[9] = 25°C, pH 7.6, 25 microM dUMP, THF 5 to 150 microM, read-out: K1TS C.albicans
[10] = 25°C, pH 7.6, 25 microM dUMP, THF 5 to 150 microM, 100 micrograms/ml BSA, read-out: K1TS Human

Sequence of C.albicans thymidylate synthase (TS) (P12461 whole entry): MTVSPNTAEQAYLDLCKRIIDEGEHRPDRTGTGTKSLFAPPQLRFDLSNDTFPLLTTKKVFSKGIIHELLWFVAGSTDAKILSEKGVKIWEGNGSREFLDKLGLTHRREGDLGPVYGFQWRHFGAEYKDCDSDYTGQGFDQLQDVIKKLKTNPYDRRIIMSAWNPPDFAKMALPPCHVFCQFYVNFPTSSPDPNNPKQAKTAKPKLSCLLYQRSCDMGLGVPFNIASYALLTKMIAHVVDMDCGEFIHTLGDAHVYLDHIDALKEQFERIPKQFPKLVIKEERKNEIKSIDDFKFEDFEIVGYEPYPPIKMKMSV
Sequence of Human thymidylate synthase (TS) (P04818 whole entry): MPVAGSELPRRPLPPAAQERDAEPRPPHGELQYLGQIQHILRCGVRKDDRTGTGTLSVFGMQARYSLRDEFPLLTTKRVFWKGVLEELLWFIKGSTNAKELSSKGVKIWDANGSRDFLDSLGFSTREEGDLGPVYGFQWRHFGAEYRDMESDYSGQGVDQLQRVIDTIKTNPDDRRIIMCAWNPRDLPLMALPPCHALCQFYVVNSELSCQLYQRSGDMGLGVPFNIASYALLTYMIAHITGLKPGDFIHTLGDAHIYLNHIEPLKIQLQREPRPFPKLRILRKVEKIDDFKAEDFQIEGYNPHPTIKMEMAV
Sequence of E.coli thymidylate synthase (TS) (P0A884 whole entry): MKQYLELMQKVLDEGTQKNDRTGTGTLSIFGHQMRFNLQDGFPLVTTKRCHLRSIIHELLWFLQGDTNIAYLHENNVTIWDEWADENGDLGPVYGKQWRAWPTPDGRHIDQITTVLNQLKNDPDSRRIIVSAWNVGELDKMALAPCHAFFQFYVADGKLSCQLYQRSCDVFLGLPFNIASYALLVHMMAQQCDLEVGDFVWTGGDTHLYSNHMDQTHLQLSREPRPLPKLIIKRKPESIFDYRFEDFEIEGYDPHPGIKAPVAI
Sequence of L. major thymidylate synthase (TS) (P07382 whole entry): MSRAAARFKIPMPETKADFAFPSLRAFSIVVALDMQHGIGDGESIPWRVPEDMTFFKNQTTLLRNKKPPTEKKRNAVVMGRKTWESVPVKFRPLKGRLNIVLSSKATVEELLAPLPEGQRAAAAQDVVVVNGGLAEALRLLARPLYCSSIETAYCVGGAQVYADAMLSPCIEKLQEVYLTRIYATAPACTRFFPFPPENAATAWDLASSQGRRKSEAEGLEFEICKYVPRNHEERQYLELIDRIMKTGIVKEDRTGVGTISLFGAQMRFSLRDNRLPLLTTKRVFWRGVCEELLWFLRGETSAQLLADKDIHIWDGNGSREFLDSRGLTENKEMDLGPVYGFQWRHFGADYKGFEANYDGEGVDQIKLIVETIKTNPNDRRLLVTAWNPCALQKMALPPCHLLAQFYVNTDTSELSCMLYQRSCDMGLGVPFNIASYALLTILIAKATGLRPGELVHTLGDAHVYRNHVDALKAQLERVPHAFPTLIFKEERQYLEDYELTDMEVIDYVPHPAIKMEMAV
T1 sequence (P07607 whole entry): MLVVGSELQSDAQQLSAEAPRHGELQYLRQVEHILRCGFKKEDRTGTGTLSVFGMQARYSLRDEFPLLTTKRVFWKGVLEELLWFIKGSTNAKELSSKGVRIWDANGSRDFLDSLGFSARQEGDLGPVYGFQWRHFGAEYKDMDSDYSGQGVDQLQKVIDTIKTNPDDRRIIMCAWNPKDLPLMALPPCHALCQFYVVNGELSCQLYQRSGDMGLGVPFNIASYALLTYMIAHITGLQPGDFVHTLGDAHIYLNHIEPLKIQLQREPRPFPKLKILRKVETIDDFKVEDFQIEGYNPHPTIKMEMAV

Row | Molecule | IC50 [1, 7] [µM] | IC50 [2, 8] [µM] | Ki [3] [µM] | Ki [5, 10] [µM] | other results
1 | C#CCN(Cc1ccc2nc(C)[nH]c(=O)c2c1)c1ccccc1 [—] | > 10 | > 10 | – | – | –
2 | C#CCN(Cc1cccc2c(NC=O)coc12)c1ccc([N+](=O)[O-])cc1 [Compound E, N-((3-Formylamino-7-benzofuranyl)methyl)-N-(prop-2-ynyl)-4-nitroaniline] | – | – | 70.9 ± 1.8 | – | –
3 | C#CCN(Cc1ccc2nc(C)nc(O)c2c1)c1ccc(C#N)c(Cl)c1 [3-Cl, 4-CN] | 4.5 | > 6.8 | 0.091 ± 0.052 | – | Ki [4]: 0.28 ± 0.19 µM; Ki [5]: 0.087 ± 0.001 µM
4 | C#CCN(Cc1ccc2nc(C)nc(O)c2c1)c1cccc(C#C)c1 [3-C≡CH] | > 2.4 | > 2.4 | 32.9 ± 14.1 | – | –
5 | C#CCN(Cc1ccc2nc(C)nc(O)c2c1)c1cccc(C)c1 [Compound 3-CH3] | > 5 | > 5 | 16.3 ± 9.8 | 10.2 ± 10.2 | Ki [4, 9]: 7.7 µM
6 | C#CCN(Cc1ccc2nc(C)nc(O)c2c1)c1ccc(C#N)cc1 [Compound 4-CN] | > 5 | > 5 | 0.52 ± 0.46 | 0.54 ± 0.74 | –
7 | C#CCN(Cc1ccc2nc(C)nc(O)c2c1)c1cccc(CC)c1 [Compound 3-C2H5] | > 5 | > 5 | 24.5 ± 15.7 | 23.9 ± 20.8 | –
8 | C#CCN(Cc1ccc2nc(C)nc(O)c2c1)c1ccc(Cl)cc1 [Compound 4-Cl] | > 4 | > 4 | 5.9 ± 1.8 | 5.4 | Ki [4, 9]: 10.6 ± 4.7 µM
9 | C#CCN(Cc1ccc2nc(C)nc(S)c2c1)c1cccc(C(F)(F)F)c1 [Compound D, N-((3,4-dihydro-2-methyl-4-thio-6-quinazolinyl)methyl)-N-(prop-2-ynyl)-3-trifluoromethylaniline] | – | – | 3.3 ± 1.4 | 17.5 ± 11 | –
10 | C#CCN(Cc1ccc2nc(C)nc(O)c2c1)c1cccc(Br)c1 [Compound 3-Br] | > 5.5 | > 5.5 | 5.5 ± 1.3 | 3.6 ± 2.6 | –
11 | C#CCN(Cc1ccc2nc(C)nc(O)c2c1)c1cccc(CO)c1 [Compound 3-CH2OH] | 48 | > 55 | 6.7 ± 5.4 | 1.2 ± 0.4 | –
12 | C#CCN(Cc1ccc2nc(C)[nH]c(=O)c2c1)c1ccc(S(=O)(=O)c2ccccc2)cc1 [Compound 4-SO2Ph] | – | – | – | – | IC50 [1]: 1 µM; IC50 [2]: 2.5 µM
13 | C#CCN(Cc1ccc2nc(C)nc(O)c2c1)c1ccc(S(N)(=O)=O)c(C(F)(F)F)c1 [3-CF3,4-SO2NH2] | – | – | 0.19 ± 0.12 | 0.58 ± 0.74 | Ki [4, 9]: 1.9 ± 0.6 µM
14 | C#CCN(Cc1ccc2nc(C)[nH]c(=O)c2c1)c1ccc(S(=O)(=O)C(F)(F)F)cc1 [Compound A, N-((3,4-Dihydro-2-methyl-4-oxo-6-quinazolinyl)methyl)-N-(prop-2-ynyl)-4-trifluoromethanesulfonylaniline] | > 2.75 | > 2.75 | 0.015 | 0.075 ± 0.035 | inhibition at this concentration, CCRF-CEM [2]: no inhibition
15 | tetraglutamate of 10-propargyl-5,8-dideazafolic acid | – | – | – | – | binds more tightly to murine L1210 TS than the monoglutamate parent compound (murine L1210 TS): 119 fold
16 | C#CCN(Cc1ccc2nc(-c3ccccc3)[nH]c(=O)c2c1)c1ccc(Cl)cc1 [Compound C] | – | – | 42.6 ± 23.1 | – | –
17 | C#CCN(Cc1ccc2nc(C)nc(O)c2c1)c1ccc(C(=O)c2ccccc2)cc1 [Compound 4-COPh] | 6.8 | > 8.5 | 0.5 ± 0.11 | 0.7 ± 0.19 | –
18 | C#CCN(Cc1ccc2nc(C)nc(O)c2c1)c1ccc([N+](=O)[O-])c(C(F)(F)F)c1 [3-CF3,4-NO2] | > 5 | – | 0.078 ± 0.076 | 0.2 ± 0.25 | –
19 | C#CCN(Cc1ccc2nc(C)[nH]c(=O)c2c1)c1ccc(C#N)c(C(F)(F)F)c1 [3-CF3,4-CN] | > 2.8 | > 2.8 | 0.036 ± 0.007 | – | Ki [6]: 0.03 µM; inhibition at this concentration, L1210 ([1]; at the highest concentration tested, printed in the same cell or footnote, 3 days): 15%; inhibition at this concentration, CCRF-CEM [2]: no inhibition; Ki [5]: 0.081 ± 0.057 µM
20 | C#CCN(Cc1ccc2nc(C)[nH]c(=O)c2c1)c1ccc(S(=O)(=O)c2ccccc2)c(C(F)(F)F)c1 [Compound B, N-((3,4-Dihydro-2-methyl-4-oxo-6-quinazolinyl)methyl)-4-(phenylsulfonyl)-N-(prop-2-ynyl)-3-(trifluoromethyl)aniline] | 3 | 6 | – | – | –
21 | C#CCN(Cc1ccc2nc(C)nc(O)c2c1)c1ccc(S(=O)(=O)NCC(=O)O)c(C(F)(F)F)c1 [3-CF3,4-SO2NHCH2COOH] | – | – | 0.015 ± 0.003 | – | Ki ([6]; 25°C, pH 7.6, 25 microM dUMP, THF 5 to 150 microM, 100 micrograms/ml BSA, read-out: K1TS L. major): 0.013 µM
22 | C#CCN(Cc1ccc2nc(C)[nH]c(=O)c2c1)c1cccc(C(F)(F)F)c1 [Compound 3-CF3] | > 4.3 | > 4.3 | – | – | –
23 | C#CCN(Cc1ccc2nc(C)nc(O)c2c1)c1cccc(C(C)O)c1 (stereo not shown) [3-CH(OH)CH3] | > 50 | > 50 | 11.4 ± 9.8 | 9.6 ± 6.9 | –
24 | C#CCN(Cc1ccc2nc(C)nc(O)c2c1)c1cccc(I)c1 [Compound 3-I] | > 5.3 | > 5.3 | 49 ± 42.3 | 4.7 ± 3.7 | Ki [4, 9]: 15.5 ± 5.5 µM
25 | C#CCN(Cc1ccc2nc(C)[nH]c(=O)c2c1)c1ccc(S(N)(=O)=O)cc1 [Compound 4-SO2NH2] | 20 | > 25 | 0.25 ± 0.15 | 0.16 ± 0.12 | inhibition at this concentration, CCRF-CEM [2]: no inhibition; Ki [4, 9]: 1 µM
26 | C#CCN(Cc1ccc2nc(C)nc(O)c2c1)c1ccc([N+](=O)[O-])cc1 [Compound 4-NO2] | 4.5 | > 4.8 | 0.12 ± 0.07 | 0.25 ± 0.21 | Ki [4, 9]: 1.5 ± 1.1 µM
